The results in this text go back to the supplement of paper PMC7224384.

For assay [1], the system named is MDA-MB-453. Briefly: drug sensitivity score (DSS), single agent (DSS (weighted AUC score)); higher = more sensitive (stronger viability decrease); extreme values may be limits of the assay. As to conditions: BLU9931 0 nM; 72 h. The procedure, abridged:
(§1)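 Drug sensitivity scores come from a weighted area under a four-parameter logistic fit to percent viability, normalised per plate to control wells. Viability was based on cellular ATP read with CellTiterGlo 2.0 after 72 h at 37 °C, 5% CO2. Each 384-well plate carried FIMM Oncology set compounds in singlicate at five 10-fold dilutions, with 2000 MDA-MB-453 cells per well in medium with or without an FGFR4 inhibitor at 100 nM final.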

Assay [2] has as its system MDA-MB-453. Briefly: drug sensitivity score (DSS), in combination with BLU9931 (DSS (weighted AUC score)); higher = more sensitive (stronger viability decrease); extreme values may be limits of the assay. As to conditions: BLU9931 100 nM; 72 h. An outline of the steps: as §1

Take `C[C@@H]1COCCN1c1cc(C2([S@](C)(=N)=O)CC2)nc(-c2cc[nH]c3nccc2-3)n1` [AZD6738]: the drug sensitivity score in the assay with MDA-MB-453 [1] is 11; in the assay with MDA-MB-453 [2], 10.7.
As to `COC[C@H](NC(=O)c1cnc(C)s1)C(=O)N[C@@H](COC)C(=O)N[C@@H](Cc1ccccc1)C(=O)[C@@]1(C)CO1` [Oprozomib], the drug sensitivity score in the assay on MDA-MB-453 [1] was determined as 14.8; in the assay with MDA-MB-453 [2] it was 12.3.
Taken in the same sequence, the figures for `CC[C@@H]1C(=O)OC[C@@H]1Cc1cncn1C` [Pilocarpine] were 1.2 and 0.2.
Taken in the same sequence, the figures for `CCn1cc(-c2ccnc3[nH]c(-c4cccc(CN(C)C)c4)cc23)c(-c2ccc(NC(=O)N(C)C)cc2)n1` were 1 and 1.
On the same counts, the results for `O[C@H]1CC[C@H](Nc2ncc3nc(Nc4c(F)cc(F)cc4F)n([C@H]4CCOC4)c3n2)CC1` [Tanzisertib] are 0 and 0.
Take `COc1cc(OC)cc(N(CCNC(C)C)c2ccc3ncc(-c4cnn(C)c4)nc3c2)c1` [Erdafitinib]: the drug sensitivity score was 4.3 in the assay with MDA-MB-453 [1] and 0.2 in the assay on MDA-MB-453 [2].
As for `Cc1cnc(-c2ccccc2C(C)C)nc1NCc1ccc(-n2ccnn2)cc1` [ML323], the drug sensitivity score worked out at 0.4 with MDA-MB-453 [1] and 0 in the assay with MDA-MB-453 [2].
On the same counts, the results for `O=C(Nc1cccc(NC(=O)c2cccc(O)c2O)c1)c1cccc(O)c1O` [MST-312] are 10 and 9.7.
Taken in the same sequence, the figures for `Cc1cc(Nc2nc(N[C@@H](C)c3ncc(F)cn3)ncc2Cl)[nH]n1` [AZD1480] were 0.3 and 0.
Turning to `O=C1NC(=O)[C@@H](c2cn3c4c(cccc24)CCC3)[C@@H]1c1c[nH]c2ccccc12` [Tivantinib], the figures for the drug sensitivity score in the assay on MDA-MB-453 [1] and in the assay with MDA-MB-453 [2] were 4.4 and 2, respectively.
Regarding `COc1cc(N2CCC(N3CCN(C)CC3)CC2)ccc1Nc1ncc(Cl)c(Nc2ccccc2P(C)(C)=O)n1` [Brigatinib], the drug sensitivity score stood at 2.4 in the assay on MDA-MB-453 [1] and 2 with MDA-MB-453 [2].
Consider `COc1ccccc1S(=O)(=O)Nc1ccc2c(c1)CN(C)C(=O)N2` [PFI-1], for which the values for the drug sensitivity score in the assay on MDA-MB-453 [1] and in the assay on MDA-MB-453 [2] were 8.2 and 8.4, respectively.
On the same counts, the results for `COc1cc(CCc2cc(NC(=O)c3ccc(N4CC(C)NC(C)C4)cc3)n[nH]2)cc(OC)c1` (stereo unspecified) [AZD4547] are 0.3 and 0.
Consider `CNC(=O)c1cccc2cc(Oc3ccnc4cc(OCC5(N)CC5)c(OC)cc34)ccc12` [Lucitanib], for which the drug sensitivity score is 2.9 with MDA-MB-453 [1] and 0.9 with MDA-MB-453 [2].
As to `CC[C@]12C=CCN3CC[C@@]4(c5cc([C@@]6(C(=O)OC)C[C@@H]7C[C@@H](C(C)(F)F)CN(Cc8c6[nH]c6ccccc86)C7)c(OC)cc5N(C)[C@H]4[C@@](O)(C(=O)OC)[C@@H]1OC(C)=O)[C@@H]32` [Vinflunine], the drug sensitivity score was 2.6 with MDA-MB-453 [1] and 1.3 in the assay with MDA-MB-453 [2].
For `CC(C)C[C@@H](C(=O)N[C@H](C(=O)OC1CCCC1)c1ccccc1)[C@H](O)C(=O)NO` [Tosedostat], the drug sensitivity score in the assay on MDA-MB-453 [1] was found to be 9.4; with MDA-MB-453 [2] it was 10.1.
On the same counts, the results for `CC[C@]1(O)C[C@H]2CN(CCc3c([nH]c4ccccc34)[C@@](C(=O)OC)(c3cc4c(cc3OC)N(C=O)[C@H]3[C@@](O)(C(=O)OC)[C@H](OC(C)=O)[C@]5(CC)C=CCN6CC[C@]43[C@@H]65)C2)C1` [Vincristine] are 14.1 and 8.1.
On the same counts, the results for `Cc1cnc(NC(=O)Nc2cc(Br)c(C)cc2OC[C@@H]2CNCCO2)cn1` [Rabusertib] are 1.2 and 0.9.
Taken in the same sequence, the figures for `O=C(NCc1ccncc1)C12CC3CC(C1)CC(c1ccc(Cl)cc1)(C3)C2` were 1.1 and 0.
Consider `CC1(C)CCC(c2ccc(Cl)cc2)=C(CN2CCN(c3ccc(C(=O)NS(=O)(=O)c4ccc(N[C@H](CCN5CCOCC5)CSc5ccccc5)c(S(=O)(=O)C(F)(F)F)c4)cc3)CC2)C1` [Navitoclax], for which the drug sensitivity score was found to be 0.3 with MDA-MB-453 [1] and 2.4 in the assay on MDA-MB-453 [2].
On the same counts, the results for `Cc1c2oc3c(C)ccc(C(=O)N[C@@H]4C(=O)N[C@H](C(C)C)C(=O)N5CCC[C@H]5C(=O)N(C)CC(=O)N(C)[C@@H](C(C)C)C(=O)O[C@@H]4C)c3nc-2c(C(=O)N[C@@H]2C(=O)N[C@H](C(C)C)C(=O)N3CCC[C@H]3C(=O)N(C)CC(=O)N(C)[C@@H](C(C)C)C(=O)O[C@@H]2C)c(N)c1=O` [Dactinomycin] are 21 and 22.
For `CN1CCC(CNc2ccc3ncc(-c4cccc(OC(F)(F)F)c4)n3n2)CC1` [SGI-1776], the drug sensitivity score stood at 6.6 in the assay on MDA-MB-453 [1] and 5.8 in the assay on MDA-MB-453 [2].
On the same counts, the results for `C[C@@H](Oc1ccc2[nH]nc(/C=C/c3cnn(CCO)c3)c2c1)c1c(Cl)cncc1Cl` are 9 and 1.8.
Taken in the same sequence, the figures for `CC(C)c1cc(-c2n[nH]c(=O)n2-c2ccc3c(ccn3C)c2)c(O)cc1O` [Ganetespib] were 18.7 and 18.5.
On the same counts, the results for `O=C(/C=C/c1cccc(S(=O)(=O)Nc2ccccc2)c1)NO` [Belinostat] are 21.3 and 20.2.
Consider `COC(=O)c1ccc2c(c1)NC(=O)/C2=C(\Nc1ccc(N(C)C(=O)CN2CCN(C)CC2)cc1)c1ccccc1` [Nintedanib], for which the drug sensitivity score in the assay with MDA-MB-453 [1] is 4.7; in the assay on MDA-MB-453 [2], 1.9.
For `Nc1cc(C(F)(F)F)c(-c2cc(N3CCOCC3)nc(N3CCOCC3)n2)cn1` [Buparlisib], the drug sensitivity score in the assay with MDA-MB-453 [1] turned out to be 11.3; in the assay with MDA-MB-453 [2], 11.9.
On to `CC(C)(C)c1nc(-c2cccc(NS(=O)(=O)c3c(F)cccc3F)c2F)c(-c2ccnc(N)n2)s1` [Dabrafenib], for which the values for the drug sensitivity score in the assay with MDA-MB-453 [1] and in the assay on MDA-MB-453 [2] were 1.5 and 0.4, respectively.
On the same counts, the results for `C=C(c1ccc(C(=O)O)cc1)c1cc2c(cc1C)C(C)(C)CCC2(C)C` [Bexarotene] are 0 and 0.
For `COc1cc2nccc(Oc3ccc(NC(=O)C4(C(=O)Nc5ccc(F)cc5)CC4)cc3)c2cc1OC` [Cabozantinib], the figures for the drug sensitivity score in the assay on MDA-MB-453 [1] and in the assay on MDA-MB-453 [2] were 1.3 and 1.6, respectively.
`CNCc1ccc(-c2[nH]c3cc(F)cc4c3c2CCNC4=O)cc1` [Rucaparib]: the drug sensitivity score in the assay with MDA-MB-453 [1] came to 0.6; in the assay on MDA-MB-453 [2] it was 0.
Taken in the same sequence, the figures for `O=S(=O)(c1cccc2c(O)nccc12)N1CCCNCC1` [Hydroxyfasudil] were 0 and 0.2.
On the same counts, the results for `O=C(Nc1ccncc1)C(=O)c1cn(Cc2ccc(Cl)cc2)c2ccccc12` [Indibulin] are 9.1 and 5.3.
Turning to `Nc1ncnc2c1c(COc1cccc(Cl)c1)nn2C1CCOCC1`, the drug sensitivity score in the assay with MDA-MB-453 [1] and in the assay with MDA-MB-453 [2] was 0.9 in each case.
Take `FC(F)c1nc2ccccc2n1-c1nc(N2CCOCC2)nc(N2CCOCC2)n1` [ZSTK474]: the drug sensitivity score stood at 14.9 in the assay with MDA-MB-453 [1] and 15.6 in the assay with MDA-MB-453 [2].
On the same counts, the results for `Cc1cccc(CC(=O)N2CCc3c2ccc(-c2cn(C)c4ncnc(N)c24)c3F)n1` are 2.2 and 0.
Taken in the same sequence, the figures for `COc1cc2c(Oc3ccc4[nH]c(C)cc4c3F)ncnc2cc1OCCCN1CCCC1` [Cediranib] were 0 and 0.
Consider `CCOc1ccn(-c2ccc(F)cc2)c(=O)c1C(=O)Nc1ccc(Oc2ccnc(N)c2Cl)c(F)c1`, for which the drug sensitivity score in the assay with MDA-MB-453 [1] and in the assay on MDA-MB-453 [2] was 0 in each case.
For the molecule `Nc1ncnc2c1nc(N)n2[C@@H]1O[C@H](CO)[C@@H](O)[C@H]1O` [8-amino-adenosine], the values for the drug sensitivity score in the assay on MDA-MB-453 [1] and with MDA-MB-453 [2] were 22.4 and 25, respectively.
On the same counts, the results for `COc1ccc(-c2ccc3c(N4CCOC[C@@H]4C)nc(N4CCOC[C@@H]4C)nc3n2)cc1CO` [AZD8055] are 24.3 and 23.3.
On the same counts, the results for `O=C(Nc1cccnc1)N1CCC(Cc2cccc(Oc3ccc(C(F)(F)F)cn3)c2)CC1` [PF-3845] are 1.8 and 2.2.
Consider `C[C@@H](Oc1cc(-n2cnc3ccc(CN4CCN(C)CC4)cc32)sc1C(N)=O)c1ccccc1C(F)(F)F`, for which the drug sensitivity score turned out to be 11.5 with MDA-MB-453 [1] and 6.3 with MDA-MB-453 [2].
Taken in the same sequence, the figures for `CCC(C)n1ncn(-c2ccc(N3CCN(c4ccc(OCC5COC(Cn6cncn6)(c6ccc(Cl)cc6Cl)O5)cc4)CC3)cc2)c1=O` (stereo unspecified) [Itraconazole] were 2.9 and 1.5.
In the case of `Nc1cc(F)ccc1NC(=O)c1ccc(CNC(=O)/C=C/c2cccnc2)cc1` [Tucidinostat], the drug sensitivity score in the assay on MDA-MB-453 [1] turned out to be 9.8; with MDA-MB-453 [2], 10.1.
With `CONC(=O)c1ccccc1Nc1cc(Nc2cc(C)nn2C(C)C)ncc1Cl`, the drug sensitivity score was 0.8 in the assay with MDA-MB-453 [1] and 0.5 in the assay on MDA-MB-453 [2].
For the molecule `CCC1(c2ccc(N)cc2)CCC(=O)NC1=O` (stereo unspecified) [Aminoglutethimide], the drug sensitivity score turned out to be 0 in the assay on MDA-MB-453 [1] and 1.3 with MDA-MB-453 [2].
In the case of `S=c1[nH]cnc2nc[nH]c12` [Mercaptopurine], the drug sensitivity score in the assay on MDA-MB-453 [1] turned out to be 10.9; in the assay on MDA-MB-453 [2], 0.7.
On the same counts, the results for `Cn1cnc2c(F)c(Nc3ccc(Br)cc3Cl)c(C(=O)NOCCO)cc21` [Selumetinib] are 0.7 and 0.7.
